Results published in PMC4264749, “Phlebotomy Treatment for Elimination of Perfluoroalkyl Acids in a Highly Exposed Family: A Retrospective Case-Series” (PLoS ONE, 2014).
Read-outs that look alike come from different tables or passages of the source.

Legend:
[1] = Serum PFAA concentrations in family members during intermittent phlebotomy (HPLC-MS/MS); format: in vivo, human; conditions: for Serum concentration before treatment: before phlebotomy; for Serum concentration after treatment: after phlebotomy
From the text: After receiving informed consent, intermittent phlebotomy was undertaken at an overall rate (Table 2) that was equal to or less than the maximum rate of what is done for routine blood donations at the Canadian Blood Services: ∼500 ccs of whole blood every 56 days. Frequency and timing of blood removal was not consistent between family members because of their personal availability, success at each time of venesection, and compliance of each participant. […] Mineral supplementation was discussed and was taken by each participant.
All serum samples were submitted to ALS Laboratories (Edmonton, AB) for quantitative analysis of PFAAs (see Supporting Information, S1 Table). Samples were extracted by solid phase extraction and concentrations of PFHxS, PFOS, and PFOA were determined using high performance liquid chromatography/tandem mass spectrometry. Formic acid (0.1 M) along with a mixture of isotopically labeled PFAAs (Wellington Laboratories, Guelph, Ontario) were added to 1.0 mL of serum. The mixture was vortexed, sonicated, and subjected to solid phase extraction. The extract was concentrated to 100 uL and an instrument performance internal standard was added along with 200 uL of 90% 20 mM aqueous acetic acid/10% methanol. Procedural blanks were run with each set of samples, and method limits of quantification (LOQ) were 0.5 ng/mL for each analyte. For the few PFAA levels that fell below this LOQ (shown as hollow circles in Figs. 1–3), LOQ/√2 (i.e. 0.35 ng/mL) was substituted for purposes of data analysis. PFHxS, PFOS, and PFOA levels in all participating family members were >LOQ throughout the intervention except for 3 PFOS measurements out of 16 total measurements in the 3rd child and one PFOA measurement out of 9 total measurements in the […]. Written informed consent was given by participants (or parents in the case of children) for their clinical records to be used in this study.

[2] = Apparent elimination half-life (HLapp) and phlebotomy efficiency coefficient in treated family members; format: in vivo, human; conditions: family members with regular phlebotomy, except parent
From the text: To evaluate the effect of phlebotomy, versus the expected rate of intrinsic elimination, we graphically and statistically compared the observed decreasing trends in each family member (fitted to a simple exponential decay model) with reference population elimination kinetics. Specifically, for the reference population of occupationally exposed retirees, we considered: i) the 95% confidence interval of the geometric mean elimination rate for each PFAA, and ii) the fastest individual rate of elimination rate among the reference population. For comparative purposes, the concentration of each PFAA in serum on the first day of the intervention was taken as time zero, and the models were forced through this starting point.
One metric that was calculated to compare the efficiency of the phlebotomy for removal of different PFAAs in each family member was termed the phlebotomy efficiency coefficient (EC). This was based on the subtractive difference between HLapp (yrs) in each treated family member and the geometric mean HLin (yrs) of the reference population according to Equation 1 . [drawing 1] (1)

[3] = parameters: method as in PMID 17805419; conditions: cited from earlier work
[4] = parameters: method as in earlier work; conditions: 2009–2011; cited from earlier work
[5] = parameters: method as in PMID 23980546; conditions: urinary excretion, China, cited from earlier work

O=S(=O)(O)C(F)(F)C(F)(F)C(F)(F)C(F)(F)C(F)(F)C(F)(F)C(F)(F)C(F)(F)F [PFOS, perfluoroctane sulfonate]
Serum concentration before treatment ([1]; 1st Child): 19.3 ng/mL
Serum concentration ([1]; 1st Child, sampling date 2009.10.12): 14.3 ng/mL
Serum concentration ([1]; 1st Child, sampling date 2009.12.24): 16.1 ng/mL
Serum concentration ([1]; 1st Child, sampling date 2009.6.9): 19.3 ng/mL
Serum concentration ([1]; 1st Child, sampling date 2009.9.9): 14.8 ng/mL
Serum concentration ([1]; 1st Child, sampling date 2010.10.14): 0.73 ng/mL
Serum concentration ([1]; 1st Child, sampling date 2010.1.17): 11.3 ng/mL
Serum concentration ([1]; 1st Child, sampling date 2010.2.11): 6.84 ng/mL
Serum concentration ([1]; 1st Child, sampling date 2010.4.14): 17.9 ng/mL
Serum concentration ([1]; 1st Child, sampling date 2011.12.5): 0.93 ng/mL
Serum concentration ([1]; 1st Child, sampling date 2011.5.17, LOD=0.5ng/mL): <LOD
Serum concentration ([1]; 1st Child, sampling date 2011.8.12, LOD=0.5ng/mL): <LOD
Serum concentration ([1]; 1st Child, sampling date 2012.12.28, LOD=0.5ng/mL): <LOD
Serum concentration ([1]; 1st Child, sampling date 2012.4.24): 2.12 ng/mL
Serum concentration ([1]; 1st Child, sampling date 2012.8.21): 1.44 ng/mL
Serum concentration ([1]; 1st Child, sampling date 2013.3.30): 0.61 ng/mL
Serum concentration ([1]; 1st Child, sampling date 2013.7.30): 1.59 ng/mL
Serum concentration before treatment ([1]; 2nd Child): 59.7 ng/mL
Serum concentration ([1]; 2nd Child, sampling date 2009.10.24): 44.7 ng/mL
Serum concentration ([1]; 2nd Child, sampling date 2009.6.6): 59.7 ng/mL
Serum concentration ([1]; 2nd Child, sampling date 2009.7.2): 51.9 ng/mL
Serum concentration ([1]; 2nd Child, sampling date 2009.7.30): 51.9 ng/mL
Serum concentration ([1]; 2nd Child, sampling date 2009.8.24): 67.8 ng/mL
Serum concentration ([1]; 2nd Child, sampling date 2009.9.27): 41.4 ng/mL
Serum concentration ([1]; 2nd Child, sampling date 2010.1.3): 36.6 ng/mL
Serum concentration ([1]; 2nd Child, sampling date 2010.2.15): 47.7 ng/mL
Serum concentration ([1]; 2nd Child, sampling date 2011.10.2): 1.8 ng/mL
Serum concentration ([1]; 2nd Child, sampling date 2011.12.24): 13.9 ng/mL
Serum concentration ([1]; 2nd Child, sampling date 2011.4.27): 7.0 ng/mL
Serum concentration ([1]; 2nd Child, sampling date 2011.8.14): 4.6 ng/mL
Serum concentration ([1]; 2nd Child, sampling date 2012.12.24): 5.5 ng/mL
Serum concentration ([1]; 2nd Child, sampling date 2012.4.6): 12.2 ng/mL
Serum concentration ([1]; 2nd Child, sampling date 2013.5.11.): 9.2 ng/mL
Serum concentration ([1]; 2nd Child, sampling date 2013.7.15): 9.0 ng/mL
Serum concentration before treatment ([1]; 3rd Child): 87.3 ng/mL
Serum concentration ([1]; 3rd Child, sampling date 2009.10.11): 107.0 ng/mL
Serum concentration ([1]; 3rd Child, sampling date 2009.12.16): 48.9 ng/mL
Serum concentration ([1]; 3rd Child, sampling date 2009.6.1): 87.3 ng/mL
Serum concentration ([1]; 3rd Child, sampling date 2009.7.4): 102.9 ng/mL
Serum concentration ([1]; 3rd Child, sampling date 2009.8.7): 76.5 ng/mL
Serum concentration ([1]; 3rd Child, sampling date 2009.9.7): 113.0 ng/mL
Serum concentration ([1]; 3rd Child, sampling date 2010.1.24): 58.8 ng/mL
Serum concentration ([1]; 3rd Child, sampling date 2010.3.12): 66.3 ng/mL
Serum concentration ([1]; 3rd Child, sampling date 2010.5.23): 52.8 ng/mL
Serum concentration ([1]; 3rd Child, sampling date 2011.1.6): 18.6 ng/mL
Serum concentration ([1]; 3rd Child, sampling date 2011.11.26): 9.2 ng/mL
Serum concentration ([1]; 3rd Child, sampling date 2011.2.24): 11.9 ng/mL
Serum concentration ([1]; 3rd Child, sampling date 2011.4.30): 12.1 ng/mL
Serum concentration ([1]; 3rd Child, sampling date 2011.6.13): 11.5 ng/mL
Serum concentration ([1]; 3rd Child, sampling date 2011.9.27): 4.8 ng/mL
Serum concentration ([1]; 3rd Child, sampling date 2012.10.16): 17.1 ng/mL
Serum concentration ([1]; 3rd Child, sampling date 2012.1.8): 20.8 ng/mL
Serum concentration ([1]; 3rd Child, sampling date 2012.12.9): 10.5 ng/mL
Serum concentration ([1]; 3rd Child, sampling date 2012.3.4): 25.4 ng/mL
Serum concentration ([1]; 3rd Child, sampling date 2012.4.28): 19.8 ng/mL
Serum concentration ([1]; 3rd Child, sampling date 2013.10.27): 12.2 ng/mL
Serum concentration ([1]; 3rd Child, sampling date 2013.2.5): 8.8 ng/mL
Serum concentration ([1]; 3rd Child, sampling date 2013.3.30): 8.0 ng/mL
Serum concentration ([1]; 3rd Child, sampling date 2013.5.5): 12.8 ng/mL
Serum concentration ([1]; 3rd Child, sampling date 2013.7.25): 13.4 ng/mL
Serum concentration ([1]; 3rd Child, sampling date 2013.9.8): 12.0 ng/mL
starting serum concentration relative to 95th percentile among Canadians ([1]; 3 youngest children): 3–5 fold
Serum concentration after treatment ([1]; 4th Child): 5.0 ng/mL
Serum concentration before treatment ([1]; 4th Child): 62.4 ng/mL
Serum concentration ([1]; 4th Child, sampling date 2010.1.24): 26.8 ng/mL
Serum concentration after treatment ([1]; Average of 6 family members): 6.7 ng/mL
Serum concentration before treatment ([1]; Average of 6 family members): 43.4 ng/mL
Serum concentration before treatment ([1]; Parent one): 15.1 ng/mL
Serum concentration ([1]; Parent one, sampling date 2009.10.11): 8.8 ng/mL
Serum concentration ([1]; Parent one, sampling date 2009.10.12): 9.2 ng/mL
Serum concentration ([1]; Parent one, sampling date 2009.11.12): 11.0 ng/mL
Serum concentration ([1]; Parent one, sampling date 2009.12.14): 8.6 ng/mL
Serum concentration ([1]; Parent one, sampling date 2009.2.2): 15.1 ng/mL
Serum concentration ([1]; Parent one, sampling date 2009.5.18): 13.2 ng/mL
Serum concentration ([1]; Parent one, sampling date 2009.6.1): 11.8 ng/mL
Serum concentration ([1]; Parent one, sampling date 2009.7.4): 9.8 ng/mL
Serum concentration ([1]; Parent one, sampling date 2009.9.1): 11.3 ng/mL
Serum concentration ([1]; Parent one, sampling date 2010.10.10): 6.1 ng/mL
Serum concentration ([1]; Parent one, sampling date 2010.1.17): 8.6 ng/mL
Serum concentration ([1]; Parent one, sampling date 2010.3.13): 6.8 ng/mL
Serum concentration ([1]; Parent one, sampling date 2011.1.6): 2.3 ng/mL
Serum concentration ([1]; Parent one, sampling date 2011.11.26): 1.4 ng/mL
Serum concentration ([1]; Parent one, sampling date 2011.2.24): 2.1 ng/mL
Serum concentration ([1]; Parent one, sampling date 2011.4.30): 1.5 ng/mL
Serum concentration ([1]; Parent one, sampling date 2011.6.22): 1.6 ng/mL
Serum concentration ([1]; Parent one, sampling date 2011.8.4): 1.3 ng/mL
Serum concentration ([1]; Parent one, sampling date 2011.9.27): 0.5 ng/mL
Serum concentration ([1]; Parent one, sampling date 2012..12.28): 0.66 ng/mL
Serum concentration ([1]; Parent one, sampling date 2012.1.14): 3.8 ng/mL
Serum concentration ([1]; Parent one, sampling date 2012.11.1): 1.7 ng/mL
Serum concentration ([1]; Parent one, sampling date 2012.3.4): 3.7 ng/mL
Serum concentration ([1]; Parent one, sampling date 2012.4.29): 2.7 ng/mL
Serum concentration ([1]; Parent one, sampling date 2012.7.8): 3.1 ng/mL
Serum concentration ([1]; Parent one, sampling date 2012.8.21): 3.1 ng/mL
Serum concentration ([1]; Parent one, sampling date 2013.10.27): 1.4 ng/mL
Serum concentration ([1]; Parent one, sampling date 2013.2.18): 1.3 ng/mL
Serum concentration ([1]; Parent one, sampling date 2013.3.30): 1.5 ng/mL
Serum concentration ([1]; Parent one, sampling date 2013.5.11): 2.5 ng/mL
Serum concentration ([1]; Parent one, sampling date 2013.7.15): 2.3 ng/mL
Serum concentration ([1]; Parent one, sampling date 2013.9.8): 1.4 ng/mL
Serum concentration before treatment ([1]; Parent two): 16.3 ng/mL
Serum concentration ([1]; Parent two, sampling date 2009.6.1): 16.3 ng/mL
Serum concentration ([1]; Parent two, sampling date 2009.7.7): 10.9 ng/mL
Serum concentration ([1]; Parent two, sampling date 2009.8.24): 10.4 ng/mL
Serum concentration ([1]; Parent two, sampling date 2010.1.3): 5.7 ng/mL
Serum concentration ([1]; Parent two, sampling date 2010.4.11, LOD=0.5ng/mL): 4.4 ng/mL
Serum concentration ([1]; Parent two, sampling date 2012.3.13): 4.1 ng/mL
Serum concentration ([1]; Parent two, sampling date 2013.1.1): 2.5 ng/mL
Serum concentration ([1]; Parent two, sampling date 2013.10.6): 11.0 ng/mL
Serum concentration ([1]; Parent two, sampling date 2013.6.22): 3.4 ng/mL
HLapp compared with geometric mean HLin of reference population [2]: significantly shorter
HLin of fastest eliminator in the reference population ([3]; reference population of occupationally exposed retirees (26 individuals)): 2.4 yrs
95% confidence interval of the geometric mean HLin ([3]; reference population of occupationally exposed retirees): 4.0–5.8 yrs
intrinsic human elimination half-life (HLin) ([3]; serum, highly contaminated retirees >55 yrs, previously occupationally exposed): 5.4 years
HLin, 95% confidence interval ([3]; serum, retirees >55 yrs, previously occupationally exposed): 3.9–6.9 yrs
95th percentile of serum concentration among Canadians [4]: 18 ng/mL
HLapp ([5]; males and post-menopausal females): 27 years
HLapp ([5]; reproductive-aged females): 6.2 years
